From PubChem BioAssay AID2060333 (Molecular Pharmacology Branch, DTP, NCI, 2025)
“And” between values parts separate entries of the source, which are not always exact repeats. Identical values can stand only once.

Test system: 845751-090-R-J2-PDC tumor spheroid viability
Test: Anticancer human tumor 845751-090-R-J2-PDC patient-derived head and neck squamous carcinoma cell line growth inhibition [IpAb]
Conditions: spheroids with HUVEC and MSC; for viability, T/C: stronger effect = lower value
Excerpt: Combinatorial screen of targeted agents with ipatasertib and abemaciclib in multi-cell type tumor spheroids
A high-throughput screen of multi-cell type tumor spheroids was designed to identify active combinations of targeted small molecules and ipatasertib or abemaciclib. Complex spheroids include a stromal component modeled by human endothelial cells (HUVEC) and fibroblasts modeled by human mesenchymal stem cells (MSCs). The concentration ranges selected for each drug and investigational agent were based upon clinically achievable concentrations if the clinical Cmax of the agent was known.
Compounds. The drugs and investigational agents: ipatasertib (NSC767898), abemaciclib(NSC768073), selumetinib (NSC741078), trametinib (758246), adavosertib (NSC754352), everolimus (NSC733504), sapanisertib (NSC764658), vemurafenib (NSC761431), venetoclax (NSC766270), copanlisib (NSC809693), apelisib (NSC765974), palbociblib (NSC758247), vemurafenib (NSC761431), dabrafenib (NSC764134), ravoxertinib (NSC781343), BMS-387032 (NSC767048), sotorasib (NSC818433), talazoparib (NSC767125) and afursertib (NSC778305), were obtained from the National Cancer Institute (NCI) Developmental Therapeutics Program Chemical Repository. The FDA-approved anticancer drug set is available from the NCI Developmental Therapeutics Program. […] The stock solutions were prepared in dimethyl sulfoxide (DMSO, Sigma-Aldrich, St. Louis, MO, cat. D2650) at 800-fold the tested concentration and stored at -70 degrees C prior to their use. All drugs and investigational agents were tested over a range starting from a high concentration at or near the clinical Cmax and decreasing in half-log increments. If the clinical Cmax for an agent had not been determined, the highest concentration tested was 10 microM.
NCI60 Cell Culture. NCI60 cell lines were obtained from the NCI Developmental Therapeutics Program Tumor Repository. For each lot of cells, the Repository performed Applied Biosystems AmpFLSTR Identifiler testing with PCR amplification to confirm consistency with the published Identifier STR profile for each cell line. Cells were kept in continuous culture for no more than 20 passages. The optimal seeding densities for each of the cell lines at each time point assessed were determined prior to performing the concentration response studies. Briefly, the NCI60 human tumor lines were grown as monolayers in RPMI 1640 medium supplemented with 10% FBS and 2 mmol/L L-glutamine.
An additional 9 lines were from the NCI60 cell line panel including MDA-MB-231 breast carcinoma, MDA-MB-468 breast carcinoma, MCF7 breast carcinoma, Hs578T breast carcinoma, MALME-3M melanoma, SK-MEL-2 melanoma, SK-OV-3 ovarian carcinoma, DU-145 prostate carcinoma, PC-3 prostate carcinoma, all cell lines along with major genetic alterations are listed on Table 2. Pooled donor human umbilical vein endothelial cells (HUVEC, Lonza, cat. CC-2519) and human mesenchymal stem cells (hMSC, Lonza, cat. PT-2501) were purchased from Lonza (Walkersville, MD).
PDMR cell lines were grown in complete medium (DC medium): Dulbecco's modified Eagle's medium (DMEM)/F12 supplemented with 5% fetal bovine serum (FBS), 2 mM L-glutamine, 100 U/mL penicillin and 100 µg/ml streptomycin, 0.4 µg/ml hydrocortisone, 10 ng/ml epidermal growth factor (EGF) recombinant human protein, 24 µg/mL adenine, and 0.1 mg/mL primocin. During culture from frozen stock vials, PDMR cells were cultured in the same medium containing 10 µM Y-27632 (see Table 3). The PDCs were cultured in complete DMEM/F12 media without 10 microM Y-27632 dihydrochloride for at least two passages prior to the screen. The pooled donor HUVEC and hMSC were cultured in endothelial cell growth medium 2 (PromoCell, Heidelberg, Germany, cat. C-22011) and mesenchymal stem cell growth medium 2 (PromoCell, cat. C-28009), respectively. For all experiments, HUVEC and hMSC were used at passages </=5.
[…]
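Further: spheroids exposed to compounds for 7 days before readout.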
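Wherever viability, T/C is given: CTG3D luminescence normalised so that 100% = DMSO vehicle control.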

Question: `C=CCn1c(=O)c2cnc(Nc3ccc(N4CCN(C)CC4)cc3)nc2n1-c1cccc(C(C)(C)O)n1` was tested. Which viability, T/C (compound 0.0316 µM) did it give?
Answer: 98.5% and 92.5%

Question: And the viability, T/C (compound 0.1 µM)?
Answer: 75.5% and 64.4%

Question: And the viability, T/C (compound 0.316 µM)?
Answer: 70.1% and 55.9%

Question: And the viability, T/C (compound 1 µM)?
Answer: 68.8% and 58.6%

Question: What about the viability, T/C (compound 3.16 µM) of the same compound?
Answer: 68.3% and 69.5%

Question: What about the viability, T/C (compound 10 µM) of the same compound?
Answer: 49.5% and 53.6%

Question: And the IC50 (curve of compound)?
Answer: > 10000 nM

Question: How did the IC50 (curve of first compound, second compound 0.1 µM) turn out when `Cn1ncnc1[C@H]1c2n[nH]c(=O)c3cc(F)cc(c23)N[C@@H]1c1ccc(F)cc1` + CC(C)NCC(C(=O)N1CCN(c2ncnc3c2C(C)CC3O)CC1)c1ccc(Cl)cc1 was run?
Answer: 25.8 nM

Question: And the IC50 (curve of first compound, second compound 0.316 µM)?
Answer: < 0.316 nM

Question: What about the IC50 (curve of first compound, second compound 1 µM) of the same compound?
Answer: < 0.316 nM

Question: What about the IC50 (curve of first compound, second compound 3.16 µM) of the same compound?
Answer: < 0.316 nM

Question: And the IC50 (curve of first compound, second compound 10 µM)?
Answer: < 0.316 nM

Question: And the viability, T/C (second compound 0.1 µM, first compound 0.000316 µM)?
Answer: 53.9%

Question: What about the viability, T/C (second compound 0.1 µM, first compound 0.001 µM) of the same compound?
Answer: 88.8%

Question: And the viability, T/C (second compound 0.1 µM, first compound 0.00316 µM)?
Answer: 57%

Question: What about the viability, T/C (second compound 0.1 µM, first compound 0.01 µM) of the same compound?
Answer: 49.1%

Question: What about the viability, T/C (second compound 0.1 µM, first compound 0.0316 µM) of the same compound?
Answer: 54.1%

Question: What about the viability, T/C (second compound 0.1 µM, first compound 0.1 µM) of the same compound?
Answer: 33.6%

Question: And the viability, T/C (second compound 0.316 µM, first compound 0.000316 µM)?
Answer: 38.1%

Question: And the viability, T/C (second compound 0.316 µM, first compound 0.001 µM)?
Answer: 25%

Question: What about the viability, T/C (second compound 0.316 µM, first compound 0.00316 µM) of the same compound?
Answer: 34.4%

Question: What about the viability, T/C (second compound 0.316 µM, first compound 0.01 µM) of the same compound?
Answer: 29.6%

Question: What about the viability, T/C (second compound 0.316 µM, first compound 0.0316 µM) of the same compound?
Answer: 26.1%

Question: What about the viability, T/C (second compound 0.316 µM, first compound 0.1 µM) of the same compound?
Answer: 22.3%

Question: What about the viability, T/C (second compound 1 µM, first compound 0.000316 µM) of the same compound?
Answer: 30.1%

Question: What about the viability, T/C (second compound 1 µM, first compound 0.001 µM) of the same compound?
Answer: 27.1%

Question: What about the viability, T/C (second compound 1 µM, first compound 0.00316 µM) of the same compound?
Answer: 23.8%

Question: What about the viability, T/C (second compound 1 µM, first compound 0.01 µM) of the same compound?
Answer: 28.5%

Question: And the viability, T/C (second compound 1 µM, first compound 0.0316 µM)?
Answer: 22.9%

Question: And the viability, T/C (second compound 1 µM, first compound 0.1 µM)?
Answer: 20%

Question: What about the viability, T/C (second compound 3.16 µM, first compound 0.000316 µM) of the same compound?
Answer: 29.6%

Question: And the viability, T/C (second compound 3.16 µM, first compound 0.001 µM)?
Answer: 22.4%

Question: And the viability, T/C (second compound 3.16 µM, first compound 0.00316 µM)?
Answer: 20.2%

Question: And the viability, T/C (second compound 3.16 µM, first compound 0.01 µM)?
Answer: 24.8%

Question: And the viability, T/C (second compound 3.16 µM, first compound 0.0316 µM)?
Answer: 14.7%

Question: And the viability, T/C (second compound 3.16 µM, first compound 0.1 µM)?
Answer: 14.8%

Question: And the viability, T/C (second compound 10 µM, first compound 0.000316 µM)?
Answer: 14.8%

Question: And the viability, T/C (second compound 10 µM, first compound 0.001 µM)?
Answer: 16.9%

Question: What about the viability, T/C (second compound 10 µM, first compound 0.00316 µM) of the same compound?
Answer: 12.3%

Question: And the viability, T/C (second compound 10 µM, first compound 0.01 µM)?
Answer: 10.7%

Question: And the viability, T/C (second compound 10 µM, first compound 0.0316 µM)?
Answer: 11.6%

Question: What about the viability, T/C (second compound 10 µM, first compound 0.1 µM) of the same compound?
Answer: 9.65%

Question: What does the source list for `Cn1cnc2c(F)c(Nc3ccc(Br)cc3Cl)c(C(=O)NOCCO)cc21`?
Answer: viability, T/C (compound 0.00949 µM): 107% and 165%; viability, T/C (compound 0.03 µM): 94.5% and 174%; viability, T/C (compound 0.0949 µM): 75% and 136%; viability, T/C (compound 0.3 µM): 82.8% and 125%; viability, T/C (compound 0.949 µM): 80.4% and 122%; viability, T/C (compound 3 µM): 65.8% and 67.1%; IC50 (curve of compound): > 3000 nM

Question: For `CC(C)NCC(C(=O)N1CCN(c2ncnc3c2C(C)CC3O)CC1)c1ccc(Cl)cc1` (configuration not stated), which viability, T/C (compound 1 µM) is on record?
Answer: 30.2% [middle of 13 runs]

Question: What about the viability, T/C (compound 3.16 µM) of the same compound?
Answer: 23.3% [middle of 13 runs]

Question: And the viability, T/C (compound 10 µM)?
Answer: 14.6% [middle of 13 runs]
